Data: patent US12115176B2, “Methods and compositions relating to ClbP inhibition” (PRESIDENT AND FELLOWS OF HARVARD COLLEGE, priority 2021, dated 2024)
Entries after “also recorded” stand apart in the source; their conditions may differ.

Columns and labels:
[1] = tested on: HeLa cells infected with NC101; assay: DNA adduct detection by LC-MS; type: cell-based, human; settings: 1 μM 3
Experimental: DNA adduct detection. Infections for DNA adduct detection were carried out using the protocol described above in 6-well plates where all volumes and cell numbers were increased by a factor of 4 accordingly. After trypsinization, cell pellets were frozen at −80° C. until analysis. DNA was isolated from cells as previously reported.^15 DNA samples (100 μL, 31-48 μg) in silanized glass vials were incubated at 80° C. for 1 hour. After the incubation, samples were allowed to cool to room temperature, and volumes were increased to 200 μL by adding LC-MS grade water. Samples were filtered using a Centrifree Ultrafiltration Device (30K molecular weight, Millipore Sigma) at 2000× g for 15 minutes. Samples were dried under vacuum and stored at −20° C. Mass spectrometric data was acquired with the following conditions. The dried samples were reconstituted in 10 μL of H2O and 4 μL of the resulting solution were injected onto an UltiMate 3000 RSLCnano UPLC (Thermo Fisher Scientific) system equipped with a 5 μL injection loop. Separation was performed with a capillary column (75 μm ID, 20 cm length, 10 μm orifice) created by hand packing a commercially available fused-silica emitter (New Objective, Woburn, MA) with 5 μm Luna C18 bonded separation media (Phenomenex, Torrance, CA). […]

Klebsiella oxytoca = assay: Bacterial MIC assay (broth dilution); type: cell-based; settings: 15 h, read-out: MICs by compound
[2] = tested on: serine hydrolases in E. coli cell lysates; assay: Gel-based ABPP with fluorophosphonate probe (FP); type: binding; settings: inhibitor up to 100 μM
From the text: (§1) To further explore other possible targets of inhibitors 1-4, an activity-based protein profiling (ABPP) approach was used to assay their activity against a wide variety of serine hydrolases in bacterial and mammalian proteomes. […] One limitation of this assay is that ClbP is not labeled by the FP probe, so it cannot be observed as a reference for binding. Any other proteins which evade labeling by FP would also not be detected in this assay.
(§2) Activity-Based Protein Profiling. Bacterial or mammalian cell lysates were normalized to 1 mg/mL protein concentrations in PBS using the DC protein assay (Bio-Rad). 50 μL aliquots of lysates were incubated with compounds at the indicated concentrations (1 μL of a 50X stock in DMSO) for 30 minutes at room temperature and subsequently labeled with 5 μM of fluorophosphonate-PEG(4)-biotin probe (1 μL of a 50X stock in DMSO, synthesized as previously reported)^56 for 1 hour at room temperature. The reactions were mixed with 50 μL of 2X SDS protein loading buffer, boiled for 10 minutes at 95° C., and separated by SDS-PAGE. The labeled proteins were detected by IRdye-conjugated streptavidin (Li-Cor) and visualized using the GellOdyssey™ Imaging System (Li-Cor).^56

[3] = tested on: serine hydrolases in HEK293T cell lysates; assay: Gel-based ABPP with fluorophosphonate probe (FP); type: binding, human; settings: inhibitor up to 100 μM
From the text: as §1, §2

HeLa cells = assay: HeLa cell survival assay; type: cell-based, human; settings: all concentrations tested
Experimental: HeLa cells were maintained as described in the General Tissue Culture Methods section. After trypsinization and counting, cells were distributed in to the wells of a 96-well plate with media containing the indicated concentration of the synthetic compound and 1% DMSO (or DMSO alone) at 5000 cells per well. After 20 hours, cell viability was determined using the CellTiter-Glo® 3D Cell Viability Assay kit (Promega) following the manufacturer's instructions and measuring luminescence on a Bio-Tek Synergy HTX™ multimode plate reader.

E. coli BW25113 BACpks = assay: Metabolomics (LC-MS, XCMS); type: cell-based; settings: BW pks (and NC101), 1 μM 3 versus DMSO
Experimental: Metabolomics. One 5 mL starter culture each of E. coli BW25113 BACpks and E. coli BW25113 BACpksΔclbP was inoculated from frozen stocks and grown overnight at 37° C. in LB medium supplemented with 35 μg/ml chloramphenicol (LB+cam). Overnights were diluted 1:1000 in fresh LB+cam+1% DMSO with or without 1 μM inhibitor 3 in 5 replicates for each condition and grown for 20 hours at 37° C. A 500 μL aliquot was taken from each replicate, flash frozen in liquid nitrogen and lyophilized to dryness. Lyophilized pellets were extracted with 500 μL LC-MS grade methanol and prepared in the same manner as described above for metabolomics. Samples were analyzed by LC-MS on an Agilent Technologies 1200 series LC with a Phenomenex Luna C18 column (5 μm, 100 Å, 250×4.6 mm) coupled to an Agilent 6530 Quadrupole-Time of Flight mass spectrometer. The following chromatography conditions were used: 99% Solvent A in Solvent B for 1.5 minutes, linear gradient to 0% Solvent A in Solvent B over 43.5 minutes, 0% Solvent A for 8 minutes, linear gradient back to 99% Solvent A over 1 minute, equilibration in 99% solvent A for 9 minutes at flow rate of 0.4 mL/min and a 10 uL injection volume. Solvent A is water with 0.1% formic acid, solvent B is acetonitrile with 0.1% formic acid. […]

## CC1(C)OB([C@@H](CC(N)=O)NC(=O)CCCc2ccccc2)OC1(C)C [Compound 3]
[1]
  colibactin-derived DNA adduct formation: could effectively suppress formation of a colibactin-derived DNA adduct; also recorded: sufficient to suppress adduct formation to a degree similar to genetic deletion of clbP; also recorded: prevents
Klebsiella oxytoca
  MIC: > 200 µM
[2]
  change in protein labeling by FP probe: does not identify any significant targets
[3]
  change in protein labeling by FP probe: does not identify any significant targets
HeLa cells
  concentration without cytotoxicity to human cell lines: > 10 µM
E. coli BW25113 BACpks
  changes in metabolites versus clbP deletion: resulted in the same changes in metabolites as genetic deletion of clbP
